According to patent publication US20260207569A1, “LPA1 ANTAGONISTS FOR TREATING INTERSTITIAL LUNG DISEASE” (Bristol-Myers Squibb Company, priority 2022, published 2026):
“Also recorded” adds a separate entry of the source.

Tests used:
Type in all cases: in vivo, human
[1] = Phase 1 Part B multiple ascending dose (MAD), blood pressure, healthy participants
Description: (§1) The study was performed in 3 parts in 112 healthy male and female participants, including 24 Japanese participants. Female participants were to be not of childbearing potential. The present study was designed to evaluate the safety and tolerability, PK, and exploratory PD of an oral suspension of Compound A. Parts A and B (Cohort B1 only) enrolled healthy participants and was conducted at a site in The Netherlands and Part B (Cohort B2 to B5) enrolled healthy non-Japanese participants and was conducted at a site in the United Kingdom (UK). Part C enrolled healthy Japanese participants and was conducted at the same site in the UK.
Part B was a MAD study in a planned number of 6 sequential dose escalation cohorts (10 mg QD, 30 mg QD, 30 mg BID, 60 mg BID, 125 mg BID, and ≤250 mg BID) of 8 healthy participants (6 active+2 placebo) each, under fasted conditions. However, Cohort B6 (≤250 mg BID) was cancelled because sufficient safety and PK data had been obtained at doses up to 125 mg BID. Eligible participants received study drug (Compound A or placebo) administered orally for 14 days.
(§2) Physical examinations, vital sign measurements (including orthostasis testing in Cohort A6, Cohort B3 to B5, and C1 to C3 at selected time points), 12-lead electrocardiogram (ECG), and clinical laboratory evaluations were performed at selected times throughout the study. In addition, Holter monitoring was performed for the first 24 hours post dose on Day 1 in Part A (not in FE/pH cohort), and also for the first 24 hours post dose on Day 1 and Day 14 in Parts B and C. Participants were closely monitored for adverse events (AEs). Blood samples were collected for up to 14 days (follow-up visit) after (last) study drug administration for PK analysis. In addition, blood and urine were collected for exploratory biomarker assessments and for biobanking of samples for potential analyses. Urine was collected for potential PK analysis for up to 96 hours after a single dose of Compound A or placebo was administered in the SAD part, and for up to 24 hours after the first (morning) dose of study drug on Day 1 and for up to 24 hours after the last (morning) dose of study drug on Day 14 in the MAD parts.

[2] = Phase 1 Part C MAD, blood pressure, healthy Japanese participants
Description: as §1
Part C was a MAD study in 3 sequential dose escalation cohorts (30 mg BID, 60 mg BID, and 90 mg BID) of 8 healthy Japanese participants (6 active+2 placebo) each. Eligible participants in Cohorts C1 to C3 received study drug (Compound A or placebo) administered orally for 14 days.
as §2

[3] = test system: participants with IPF; assay: Phase 2 IPF cohort efficacy: rate of change in ppFVC / FVC to Week 26
Description: A total of 278 participants with IPF were randomized and 276 participants were treated as of […] analyses data cut-off (4 Aug. 2022). Male and female participants ≥40 years of age with IPF and percent predicted forced vital capacity (ppFVC) ≥40% and percent predicted DLCO (ppDLCO) ≥25%; diagnosed within 7 years of screening; having a centrally-read chest HRCT obtained at screening that was consistent with UIP or probable UIP, or having a lung biopsy consistent with UIP, were eligible to enter the study. The mean baseline ppFVC for all subjects was 76.5%. In the primary IPF cohort, participants were randomized (1:1:1) to receive 30 mg or 60 mg Compound A or placebo (PBO) twice daily for 26 weeks. Participants were stratified by standard of care (SoC) IPF therapy (pirfenidone versus nintedanib versus none) and region (Japan versus Rest of World) at randomization.
The primary objective of the study was to determine the rate of change in ppFVC from baseline to Week 26. The primary objective was evaluated with a two estimand framework to handle the intercurrent event of dose reduction to 10 mg BID or matching PBO when pre-specified low BP criteria is met. The primary estimand is adopted to estimate treatment effect when dose reduction is implemented. The supplementary estimand is adopted to estimate the effect of treatment without dose reduction.
Analysis Strategy: The primary estimand was to evaluate the efficacy of Compound A at 30 mg or 60 mg twice daily, compared to PBO in IPF participants who met the enrollment criteria, with or without use of SoC. The rate of decline in ppFVC (%) from baseline to Week 26 was compared using the difference between each dose and PBO as a population level summary regardless of dose reduction or treatment discontinuation for any reason (treatment policy strategy).
Analysis Strategy: The supplementary estimand for the primary objective is to evaluate the efficacy of Compound A at 30 mg or 60 mg twice daily without dose reduction, compared to the PBO in IPF subjects who met the enrollment criteria, with or without use of SoC. The rate of decline in ppFVC (%) from baseline to Week 26 has been compared using the difference between each dose and PBO as a population level summary regardless of treatment discontinuation for any reason (treatment policy strategy). In the event of dose reduction, data collected after dose reduction will not be considered relevant to the treatment effect of interest and therefore, will be treated as missing (while-on-treatment strategy).

[4] = Phase 1 Part A single ascending dose (SAD) and food effect/pH cohort, blood pressure and safety, healthy participants; settings: for Time of maximum mean DBP reduction / Time of maximum mean SBP reduction: within 12 h post dose
Description: as §1
Part A was an SAD study in a planned number of 6 sequential dose escalation cohorts (3, 10, 30, 100, 150, or 250 mg) of 8 healthy participants (6 active+2 placebo) each, under fasted conditions. Eligible participants in Part A (excluding those in Cohort A7 [food effect (FE)/pH cohort]) received a single administration of study drug (Compound A or placebo) under fasted conditions. In Cohort A1 to Cohort A6, sentinel dosing was employed (1 active+1 placebo, followed after 48 hours by the remaining participants of the cohort [5 active+1 placebo]). […] In addition to the 6 ascending dose cohorts, a cohort of 6 healthy participants (Cohort A7; 6 active, 100 mg Compound A) was included to assess the effect of food and pH on the bioavailability of Compound A in a 3-period, open-label, fixed-sequence, crossover design (FE/pH cohort).
as §2

[5] = 100 mg fasted + famotidine (A7)

Compound: CCCN(C)C(=O)OCc1c(-c2ccc(O[C@H]3CCC[C@H](C(=O)O)C3)c(C)n2)nnn1C [Compound A, (1S,3S)-3-((2-methyl-6-(1-methyl-5-(((methyl(propyl)carbamoyl)-oxy)methyl)-1H-1,2,3-triazol-4-yl)pyridin-3-yl)oxy)cyclohexane-1-carboxylic acid]
- Mean DBP ([1]; MAD 60 mg BID, D 14 320 h): 63 mmHg
- Mean DBP ([1]; MAD 125 mg BID, D 15 336 h): 63 mmHg
- Reductions in BP vs placebo ([1]; MAD BID groups): no clear differences between placebo and the Compound A groups
- Reductions in mean SBP and DBP ([1]; MAD QD groups): reductions generally occurred in a Compound A dose-dependent manner
- Maximum of mean (±SD) reduction in SBP from baseline ([2]; Japanese MAD 30 mg BID (C1)): 15.0 ± 6.84 mmHg
- Time of maximum mean SBP reduction ([2]; Japanese MAD 30 mg BID (C1)): 1-4 Day-h
- Time of maximum mean DBP reduction ([2]; Japanese MAD 90 mg BID (C2)): 1-6 Day-h
- Time of maximum mean SBP reduction ([2]; Japanese MAD 90 mg BID (C2)): 1-6 Day-h
- Reductions in mean BP ([2]; Japanese MAD cohorts): no clear Compound A dose-dependent BP reduction trend
- Treatment differences in rates of change in ppFVC with and without background antifibrotic ([3]; IPF cohort): consistent between both groups
- Efficacy vs PBO ([3]; IPF, 30 mg BID, overall population): did not demonstrate efficacy compared to PBO
- Response by background SoC subgroup vs PBO ([3]; IPF, 60 mg BID, SoC (nintedanib or pirfenidone) and no SoC): favorable responses on the primary endpoint; also recorded: favorable efficacy; also recorded: favorable impact on FVC compared with PBO when used alone or on background therapy with nintedanib or pirfenidone
- Treatment response (rate of decline of ppFVC and FVC) vs PBO ([3]; IPF, 60 mg BID, Week 26, overall population): demonstrated favorable treatment responses versus PBO
- Slope difference (SE) in rate of decline in FVC, 60 mg - PBO ([3]; IPF, 60 mg BID, baseline to Week 26, supplementary estimand, Overall): 61.4 (29.35) mL
- Relative treatment benefit (ppFVC decline) compared to PBO ([3]; IPF, 60 mg BID, primary estimand, not on background SoC): 113%
- Relative treatment benefit (ppFVC decline) compared to PBO ([3]; IPF, 60 mg BID, primary estimand, on background SoC): 39%
- Relative treatment benefit (ppFVC decline) compared to PBO ([3]; IPF, 60 mg BID, supplementary estimand, not on background SoC): 123%
- Relative treatment benefit (ppFVC decline) compared to PBO ([3]; IPF, 60 mg BID, supplementary estimand, on background SoC): 44%
- Time of maximum mean DBP reduction ([4]; 100 mg fasted (A7)): 5 h
- Time of maximum mean SBP reduction ([4]; 100 mg fasted (A7)): 8 h
- Time of maximum mean DBP reduction [4, 5]: 6 h
- Time of maximum mean SBP reduction [4, 5]: 6 h
- Time of maximum mean DBP reduction ([4]; 100 mg fed (A7)): 5 h
- Time of maximum mean SBP reduction ([4]; 100 mg fed (A7)): 6 h
- Time of maximum mean DBP reduction ([4]; SAD 10 mg (A2)): 6 h
- Time of maximum mean SBP reduction ([4]; SAD 10 mg (A2)): 8 h
- Time of maximum mean DBP reduction ([4]; SAD 30 mg (A3)): 5 h
- Time of maximum mean SBP reduction ([4]; SAD 30 mg (A3)): 4 h
- Time of maximum mean DBP reduction ([4]; SAD 100 mg (A4)): 5 h
- Time of maximum mean SBP reduction ([4]; SAD 100 mg (A4)): 2 h
- Time of maximum mean DBP reduction ([4]; SAD 150 mg (A5)): 6 h
- Time of maximum mean SBP reduction ([4]; SAD 150 mg (A5)): 6 h
- Effect on SBP and DBP ([4]; SAD cohorts): decreased SBP and DBP dose dependently, reversibly, and mostly asymptomatically with minimal effect on heart rate
- Safety and tolerability ([4]; single and multiple dose oral administration, healthy participants): generally safe and well tolerated
- Time after dosing of maximum BP reduction ([4]; single and multiple dose, healthy participants): 4 to 8 h
